According to EP0626016B1, “[…] […]” (BRITISH TECHNOLOGY GROUP LIMITED, priority 1992, dated 1993):
Where two headings read alike, the source gives them in different places.

Biological target: T1, HRP Type VIA (Armoracia rusticana, UniProt P00433)
T1 sequence (P00433 31-338): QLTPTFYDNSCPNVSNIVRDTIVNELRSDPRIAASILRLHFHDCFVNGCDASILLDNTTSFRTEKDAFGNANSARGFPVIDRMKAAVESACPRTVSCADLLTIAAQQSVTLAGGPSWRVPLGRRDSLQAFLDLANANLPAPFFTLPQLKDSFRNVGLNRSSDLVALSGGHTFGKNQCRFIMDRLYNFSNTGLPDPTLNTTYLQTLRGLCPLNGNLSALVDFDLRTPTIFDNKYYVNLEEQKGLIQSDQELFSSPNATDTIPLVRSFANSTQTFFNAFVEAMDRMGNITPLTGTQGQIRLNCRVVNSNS
Conditions: for (d) Signal: Background: ratio (control = with no enhancer): control value in brackets not reported

(a) Decrease in background (without HRP with test cpd.) (0.01 mg/ml, 10µl test compound)	(b) Increase in signal (with HRP, with test cpd.) (0.01 mg/ml, 10µl test compound)	(c) Increase in signal: background ratio (0.01 mg/ml, 10µl test compound)	(d) Signal: Background: ratio (control = with no enhancer) (0.01 mg/ml, 10µl test compound)	(a) Decrease in background (without HRP with test cpd.) (0.1 mg/ml, 10µl test compound)	(b) Increase in signal (with HRP, with test cpd.) (0.1 mg/ml, 10µl test compound)	(d) Signal: Background: ratio (control = with no enhancer) (0.1 mg/ml, 10µl test compound)	(a) Decrease in background (without HRP with test cpd.) (1 mg/ml, 10µl test compound)	(b) Increase in signal (with HRP, with test cpd.) (1 mg/ml, 10µl test compound)	(d) Signal: Background: ratio (control = with no enhancer) (1 mg/ml, 10µl test compound)	SMILES	(c) Increase in signal: background ratio (0.1 mg/ml, 10µl test compound)	(c) Increase in signal: background ratio (1 mg/ml, 10µl test compound)	(a) Decrease in background (without HRP with test cpd.)	(b) Increase in signal (with HRP, with test cpd.)	(c) Increase in signal: background ratio
Y	N	N (N = no)	2.2 (2.0)	Y	N	3.6 (2.7)	Y	N		OB(O)c1cccc(Cl)c1Cl [Compound 1022, 2,3-dichlorophenylboronic acid]	Y (Column (c) shows whether there was an increase in the signal:background ratio by over 25% of the control value (Y = yes)	N (N = no)			
Y	N	N (N = no)		Y	N	3.1 (2.7)	Y	N		OB(O)c1cc(Cl)ccc1Cl [Compound 1023, 2,5-dichlorophenylboronic acid]	N (N = no)	N (N = no)			
Y	N	N (N = no)		Y	Y	5.4 (2.8)	Y	N	7.6 (4.5)	OB(O)c1ccc(Cl)c(Cl)c1 [Compound 1024, 3,4-dichlorophenylboronic acid]	Y (Column (c) shows whether there was an increase in the signal:background ratio by over 25% of the control value (Y = yes)	Y (Column (c) shows whether there was an increase in the signal:background ratio by over 25% of the control value (Y = yes)			
Y	N	N (N = no)	2.1 (2.0)	Y	N		Y	N		OB(O)c1cc(Cl)cc(Cl)c1 [Compound 1025, 3,5-dichlorophenylboronic acid]	N (N = no)	N (N = no)			
Y	N	N (N = no)	2.1 (2.0)	Y	Y	72.4 (2.8)	Y	N	40.5 (4.5)	Nc1c(Cl)cc(Cl)c(B(O)O)c1Cl [Compound 1026, 3-amino-2,4,6-trichlorophenylboronic acid]	Y (Column (c) shows whether there was an increase in the signal:background ratio by over 25% of the control value (Y = yes)	Y (Column (c) shows whether there was an increase in the signal:background ratio by over 25% of the control value (Y = yes)			

More lines, now with the values behind:

SMILES	(a) Decrease in background (without HRP with test cpd.) (0.01 mg/ml, 10µl test compound)	(b) Increase in signal (with HRP, with test cpd.) (0.01 mg/ml, 10µl test compound)	(c) Increase in signal: background ratio (0.01 mg/ml, 10µl test compound)	(d) Signal: Background: ratio (control = with no enhancer) (0.01 mg/ml, 10µl test compound)	(a) Decrease in background (without HRP with test cpd.) (0.1 mg/ml, 10µl test compound)	(b) Increase in signal (with HRP, with test cpd.) (0.1 mg/ml, 10µl test compound)	(d) Signal: Background: ratio (control = with no enhancer) (0.1 mg/ml, 10µl test compound)	(a) Decrease in background (without HRP with test cpd.) (1 mg/ml, 10µl test compound)	(b) Increase in signal (with HRP, with test cpd.) (1 mg/ml, 10µl test compound)	(d) Signal: Background: ratio (control = with no enhancer) (1 mg/ml, 10µl test compound)	(c) Increase in signal: background ratio (0.1 mg/ml, 10µl test compound)	(c) Increase in signal: background ratio (1 mg/ml, 10µl test compound)	(a) Decrease in background (without HRP with test cpd.)	(b) Increase in signal (with HRP, with test cpd.)	(c) Increase in signal: background ratio
OB(O)c1ccc(Oc2ccccc2)cc1 [Compound 1010, 4-(phenoxy)benzeneboronic acid]	Y	N	N (N = no)	3.0	Y	N	4.6	Y	N	5.0 (2.5)	Y (Column (c) shows whether there was an increase in the signal:background ratio by over 25% of the control value (Y = yes)	Y (Column (c) shows whether there was an increase in the signal:background ratio by over 25% of the control value (Y = yes)			
c1ccc(B2OCCCO2)cc1 [Compound 1012, 2-phenyl-1,3,2-dioxaborinane]	N	Y	N (N = no)	2.2	N	N	2.2	Y	N	17.1 (2.5)	N (N = no)	Y (Column (c) shows whether there was an increase in the signal:background ratio by over 25% of the control value (Y = yes)			
c1ccc([B-](c2ccccc2)(c2ccccc2)c2ccccc2)cc1 [Compound 1016, tetraphenylboron sodium]													Y	N	N (key: column (a) shows whether the test compound lowered the light output from the luminol-hydrogen peroxide solution (Y = yes; N = no)
OCC(CO)(CO)COB(O)O [Compound 1017, pentaerythritol borate]	Y	N	N (N = no)	1.8	Y	Y	2.5	Y	N	1.8 (1.8)	Y (Column (c) shows whether there was an increase in the signal:background ratio by over 25% of the control value (Y = yes)	N (N = no)			
O=C(O)c1ccc(N=Nc2ccc(O)c(B(O)O)c2)cc1 [Compound 1018, 4-(3'-borono-4'-hydroxyphenylazo)benzoic acid]	Y	N	Y (Column (c) shows whether there was an increase in the signal:background ratio by over 25% of the control value (Y = yes)	5.0	Y	N	24.5	Y	N	4.2 (1.9)	Y (Column (c) shows whether there was an increase in the signal:background ratio by over 25% of the control value (Y = yes)	Y (Column (c) shows whether there was an increase in the signal:background ratio by over 25% of the control value (Y = yes)			
CC(C)COB(c1ccccc1)c1ccccc1 [Compound 1019, diphenylisobutoxyborane]	Y	N	Y (Column (c) shows whether there was an increase in the signal:background ratio by over 25% of the control value (Y = yes)	3.2 (2.0)	Y	N	3.0 (2.9)	Y	N		N (N = no)	N (N = no)			
OB(O)c1c(Cl)cc(Cl)cc1Cl [Compound 1020, 2,4,6-trichlorophenylboronic acid]	Y	N	N (N = no)	2.2 (2.0)	Y	N		Y	N		N (N = no)	N (N = no)			
O=[N+]([O-])c1cc(B(O)O)ccc1Cl [Compound 1021, 4-chloro-3-nitrophenylboronic acid]	Y	Y	Y (Column (c) shows whether there was an increase in the signal:background ratio by over 25% of the control value (Y = yes)	2.3 (1.8)	Y	Y	44.5 (2.8)	Y	Y	247.9 (4.5)	Y (Column (c) shows whether there was an increase in the signal:background ratio by over 25% of the control value (Y = yes)	Y (Column (c) shows whether there was an increase in the signal:background ratio by over 25% of the control value (Y = yes)			
